Source: patent US20230098111A1, “COMPOSITIONS AND METHODS TO TREAT NEUROLOGICAL DISEASES” (University of Southern California, priority 2020, published 2023)

Assays:
[1] = system: C9ORF72 DPRs; assay: DPR levels in C9ORF72 iNs; assay type: cell-based, human
Description: 2000 approved drugs and 1800 target-annotated tool compounds were screened on C9ORF72 FTD iNs.

[2] = system: C9-ALS/FTD iMNs; assay: Exosome secretion from iMNs; assay type: cell-based, human
Description: (A) Western blot of TSG101, TDP-43, and Neurofilament heavy chain levels in the exosome fraction secreted from control or C9-ALS/FTD iMNs upon apilimod treatment. […] Kruskal-Wallis test for B, C. N=3 biological replicates per condition, one line per genotype. (D) Number of poly(GR)-GFP+ exosomes secreted from iMNs expressing exogenous poly(GR)-GFP upon DMSO or apilimod treatment. N=4 biological replicates. Exosomes were labeled with CFSE-red dye to enable detection by FACS. Unpaired t-test.
Blocking PIKFYVE activity induces secretory autophagy. […] Thus, secretory autophagy maintains proteostasis and prevents neuronal death in TDP-43 mouse models. PIKFYVE inhibition blocks autophagosome-lysosome fusion by […] their ratio in endosomal, lysosomal and autophagosomal membranes. One might expect this to be detrimental to ALS iMNs, which can degenerate due to misfolded protein accumulation. However, inhibition of autophagosome-lysosome fusion using PIKFYVE inhibition or bafilomycin can activate secretory autophagy to jettison misfolded proteins from cells. […] To test this hypothesis, exosomal release in human iMNs upon PIKFYVE inhibition was examined. […] Thus, PIKFYVE inhibition induces the secretion of TDP-43 and C9ORF72 DPRs from iMNs.
Determining if PIKFYVE suppression rescues neurodegeneration through secretory autophagy. […] ASOs were designed targeting […]. It was confirmed that the ASOs suppressed RAB27A expression in iMNs.

[3] = system: control iMNs
Method: Drug screening iMNs from both C90RF72 and sporadic ALS patients. […] Chemical screens were then performed to search for targets that can rescue the degeneration of iMNs from multiple patients. 2000 approved drugs and 1800 target-annotated tool compounds were screened on C9ORF72 ALS/FTD iMNs.

[4] = system: C9ORF72 FTD iNs; assay: Survival of C9ORF72 FTD iNs; assay type: cell-based, human; conditions: DMSO or apilimod; scrambled or PIKFYVE ASOs
Description: (A) Survival of C9ORF72 iNs with DMSO or apilimod. Log-rank test, 100 iNs per group. […] Log-rank test, 100 iNs per group. […] Mean+/−s.e.m. Kruskal-Wallis Test.
(A, B) Survival of C9-FTD iNs treated with DMSO and Apilimod (A) or Apilimod+GW4869 (exocytosis blocker) (B). Log-rank test. 100 iNs per group. iNs quantified from 3 independent replicates per group.
Mutations in MAPT cause FTD with tau aggregates. To determine if iNs from FTD patients display neurodegenerative phenotypes, an established method to generate cortical neurons from iPSCs by forced expression of NGN2 was used. 3 FTD patient iPSC lines harboring a MAPTV337M mutation and their CRISPR-edited isogenic controls from a published cell bank were utilized. Neurons from MAPT-mutant iPSCs display increased phosphorylated and oligomeric tau, similar to post-mortem patient tissue (FIG. 18A). […] Thus, MAPT iNs display key features of FTD with tau pathology.
Thus, C9ORF72 iNs provide a robust model of FTD.
PIKFYVE inhibition rescues neurodegeneration through secretory autophagy.

[5] = system: SOD1 A4V iMNs; assay: Survival of SOD1 ALS iMNs; assay type: cell-based, human; conditions: neurotrophic factor withdrawal; DMSO or 3 uM apilimod
Method: (A) Survival of control or SOD1 A4V iMNs with DMSO or 3 uM apilimod. (B) Survival of TDP-43 G298S iMNs with DMSO or 3 uM apilimod. (C) Survival of MAPT V337M or isogenic control iNs.
PIKFYVE inhibition rescues the survival of TARDBP ALS, SOD1 ALS, and MAPT FTD patient neurons. Since the accumulation of misfolded proteins is a common disease mechanism in all forms of ALS, FTD, and Alzheimer's disease, it was reasoned that inducing secretory autophagy might rescue neurodegeneration in diverse patients. iMNs were generated from ALS patients harboring mutations in TARDBP or SOD1 as well as NGN2-induced neurons (iNs) from MAPT^V337M FTD. […] 2 additional isogenic pairs of iPSC lines from MAPT FTD patients, 2 additional TARDBP ALS iPSC lines, and 2 additional SOD1 ALS iPSC lines were all obtained.

[6] = system: C9ORF72 dipeptide repeat proteins; assay: DPR levels in C9ORF72-BAC mice; assay type: in vivo
Method: DRP aggregates (Poly(GR) red) accumulate in the cells (white outline) of C9-BAC mice.
(A) Mass spectrometry analysis of Optineurin (OPTN) levels in the cerebrospinal fluide (CSF) of mice 2 hours after direct intracerebroventral injection of a vehicle control or apilimod. n=3 mice per group. The ratio of Optineurin in the CSF of apilimod:vehicle-injected mice is shown. (B) Poly(GR)+ DPR punctae in wild-type or C9ORF72 mice treated with intracerebroventricular injection of apilimod for 48 hours. Mean+/−s.e.m. Data points are individual neurons taken across 3 mice per group. One-way ANOVA. […] Unpaired t-test. (D) Pikfyve qRT-PCR of whole brain. n=3 mice per group at postnatal day 7. Unpaired t-test. (E) Gait impairment scoring in wild-type (WT) and TDP-43 homozygous mice treated with a negative control (NC) ASO or Pikfyve ASO at postnatal day 1. Mean+/−s.e.m. Unpaired t-test at each time point between the negative control and Pikfyve ASO conditions for TDP-43 mice. A score of 0 indicates no phenotype and 4 indicates the most severe phenotype. (F) Vehicle or GW4869 were delivered by intraperitoneal injection every 48 h starting from day 6 in negative control and Pikfyve ASO-treated mice. Mean+/−s.e.m. One-way ANOVA at each time point between the four conditions. *p<0.05, **p<0.01, ***p<0.001, ****p<0.0001.
PIKFYVE inhibition rescues neurodegeneration in vivo. […] Since TARDBP overexpressing mice show motor deficits and neurodegeneration, we used TARDBP mice to test the efficacy of Pikfyve suppression.
Determining whether PIKfyve-targeting ASOs can reverse ALS disease progression in vivo. To determine if PIKfyve-targeting ASOs can reverse ALS disease processes in vivo, can PIKfyve ASOs lower levels of C9ORF72 dipeptide repeat proteins in mice. Dipeptide repeat proteins are generated from the C9ORF72 repeat expansion by repeat-associated non-AUG-dependent translation and are neurotoxic.
To determine if ASO-mediated Pikfyve suppression lowers C9ORF72 poly(GR) levels in mice, Pikfyve ASOs were injected into the hippocampus of adult C9ORF72-BAC mice, which harbor a C9ORF72 repeat expanded transgene and accumulate poly(GR)+ aggregates in hippocampal neurons.

[7] = injection of apilimod into the hippocampus

Cc1cccc(/C=N/Nc2cc(N3CCOCC3)nc(OCCc3ccccn3)n2)c1 [apilimod]
DPR levels in C9ORF72 iNs [1]: lowered DPR levels
poly(GR)-GFP+ exosomes released from iMNs ([2]; iMNs expressing poly(GR)50-GFP, FACS): released significantly more poly(GR)-GFP+ exosomes
TDP-43 in exosomes from C9ORF72 ALS iMNs ([2]; western blot of exosome fraction): contained high levels of TDP-43
release of TSG101+ exosomes from iMNs ([2]; western blotting): significantly increased the release of TSG101+ exosomes
control iMN survival [3]: did not
survival of C9ORF72 iNs [4]: also rescued C9ORF72
survival of SOD1 ALS iMNs [5]: rescued the survival
levels of poly(GR) in C9ORF72-BAC mice [6, 7]: reduced levels
levels of poly(PR) in C9ORF72-BAC mice [6, 7]: reduced levels
DPR levels in C9ORF72-BAC mice ([6]; intracerebroventricular injection of apilimod): lowered DPR levels
